In the supplement of paper PMC8671470:

What was measured:
Experiment in all cases: cell viability (% survival relative to DMSO control); higher = less cytotoxic
Conditions in all cases: 72 h
[1] = system: myeloid leukemia patient primary cells Pat.1
Outline: (§1)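 Thawed, Ficoll-purified mononuclear cells from AML or CML patients in RPMI 1640 with 10% FBS were seeded at 10,000 cells/well on 384-well plates pre-printed with 70 compounds at five tenfold concentrations, 1–10,000 nM, in duplicate, for 72 h. Viability was read by CellTiter-Glo and normalised to DMSO and 10 μM proteasome-inhibitor wells. Where given, area under the curve came from four-parameter log-logistic fits (drc, PharmacoGx R packages).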

[2] = system: myeloid leukemia patient primary cells Pat.9
Outline: as §1

[3] = system: myeloid leukemia patient primary cells Pat.11
Outline: as §1

[4] = system: myeloid leukemia patient primary cells Pat.6
Outline: as §1

[5] = system: myeloid leukemia patient primary cells Pat.3
Outline: as §1

[6] = system: myeloid leukemia patient primary cells Pat.7
Outline: as §1

[7] = system: myeloid leukemia patient primary cells Pat.5
Outline: as §1

[8] = system: myeloid leukemia patient primary cells Pat.10
Outline: as §1

[9] = system: myeloid leukemia patient primary cells Pat.4
Outline: as §1

HL-60 = system: HL-60
Method: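 8x8 drug-combination matrices (0-5000 nM; rosiglitazone and lestaurtinib 0-1000 nM) were run in HL-60 cells for 72 h with a CellTiter-Glo read-out. Survival is normalised to DMSO and 10 µM bortezomib and clipped at 100%. Bliss synergy was analysed in SynergyFinder.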

CCN(CC)C(=S)SSC(=S)N(CC)CC [Disulfiram]
cell viability [%]
Conditions | [1] | [2] | [3] | [4] | [5] | [6] | [7] | [8] | [9]
1 nM | 95 | 71.8 | 99.9 | 99.6 | > 100 | 83.4 | 76.6 | 85 | 94.9
10 nM | 82.2 | > 100 | 99.2 | 94.6 | 99.2 | 86.8 | 76.8 | 72.2 | 90.7
100 nM | 79.8 | 86.3 | 98.7 | 80.5 | 99.7 | 61.1 | 74.5 | 47.8 | 96.1
1000 nM | 1.11 | 33.6 | 2.1 | 2.26 | 84.6 | 71.7 | 26.1 | 56.6 | 0.934
10000 nM | 0.116 | 20.9 | 3.25 | 4.13 | 1.56 | < 0 | 5.84 | > 100 | 6.79

CC(=O)Nc1nc(C)c(-c2ccc(Cl)c(S(=O)(=O)NCCO)c2)s1 [PIK93]
cell viability [%]
Conditions | [1] | [2] | [3] | [4] | [5] | [6] | [7] | [8] | [9]
1 nM | 83.9 | 68.9 | 96.6 | 91.8 | 46.7 | 61.6 | 57.4 | 65.9 | 97.3
10 nM | 67.2 | 0.773 | 85.4 | 35.2 | 24 | < 0 | 2.24 | 22.6 | 87.1
100 nM | 62.5 | 23.7 | 88.7 | 87.8 | 70.6 | 63.4 | 1.33 | 56.6 | 72.2
1000 nM | 22.1 | 24.5 | 54.6 | 72.1 | 59.3 | 64.1 | 17 | 60.8 | 10.6
10000 nM | 12.1 | 5.28 | 32.4 | 40.8 | 15.4 | 22 | 1.33 | 16.8 | 6.67

O=c1cc(N2CCOCC2)oc2c(-c3ccccc3)cccc12
cell viability [%]
Conditions | [1] | [2] | [3] | [4] | [5] | [6] | [7] | [8] | [9]
1 nM | 77.8 | 63.7 | 88.7 | 91.8 | 96.2 | 84.4 | 47.8 | 31.3 | 78.8
10 nM | 83.5 | 15.2 | 94.2 | 82.3 | 37.6 | 64.8 | 0.265 | 46.9 | 98.5
100 nM | 78 | 77.7 | 96.7 | 93.2 | 92.2 | 94.8 | 70.4 | 78.1 | 86.1
1000 nM | 63.6 | 54.8 | 91.1 | 97 | 80 | 92.1 | 58.3 | 50.8 | 63.1
10000 nM | 27.5 | 12.5 | 65.2 | 68.3 | 61.6 | 80.5 | < 0 | 22.6 | 14.4

O=C1C(SCCO)=C(SCCO)C(=O)c2ccccc21
cell viability [%]
Conditions | [1] | [2] | [3] | [4] | [5] | [6] | [7] | [8] | [9]
1 nM | 81.5 | 1.27 | 96.1 | 77.1 | 21.4 | 37.3 | 2.39 | 29.3 | 76.4
10 nM | 92.4 | 95.1 | 91.4 | > 100 | 97.2 | 96.4 | 98.5 | > 100 | 89.5
100 nM | 88.1 | 28.7 | 99.8 | 99.3 | 95.5 | 57.1 | 57.2 | 60.9 | > 100
1000 nM | < 0 | < 0 | 7.63 | 71.1 | 9.9 | < 0 | 2.01 | 35 | 3.28
10000 nM | < 0 | < 0 | 0.114 | < 0 | < 0 | < 0 | 2.39 | > 100 | 2.39

CN(CCOc1ccc(Cc2sc(O)nc2O)cc1)c1ccccn1 [Rosiglitazone] + c1cc(-c2cnn3cc(-c4ccc(OCCN5CCCCC5)cc4)cnc23)ccn1 [Dorsomorphin]
cell viability [%], HL-60
Conditions | drug1 concentration 1 nM | drug1 concentration 5 nM | drug1 concentration 10 nM | drug1 concentration 50 nM | drug1 concentration 100 nM | drug1 concentration 500 nM | drug1 concentration 1000 nM
drug2 concentration 5 nM | > 100 | 95 | 74 | > 100 | > 100 | 94.8 | > 100
drug2 concentration 10 nM | > 100 | > 100 | > 100 | > 100 | > 100 | > 100 | > 100
drug2 concentration 50 nM | 94.3 | > 100 | > 100 | > 100 | 81.2 | > 100 | > 100
drug2 concentration 100 nM | 91.4 | > 100 | > 100 | > 100 | > 100 | > 100 | > 100
drug2 concentration 500 nM | 90.8 | > 100 | 84.6 | > 100 | > 100 | 60.9 | > 100
drug2 concentration 1000 nM | 88 | > 100 | 40.1 | > 100 | 86.7 | 87.6 | 96.3
drug2 concentration 5000 nM | 12.7 | 33.1 | 33.7 | 24.4 | 65.7 | 82.5 | 90.1

Cn1cc(-c2ccncc2)c(-c2ccc(OCc3ccc4ccccc4n3)cc2)n1
cell viability [%]
Conditions | [1] | [2] | [3] | [4] | [5] | [6] | [7] | [8] | [9]
1 nM | 82.2 | 62.4 | 99.1 | 94.1 | 91.6 | 90.5 | 26.3 | 95 | 93.5
10 nM | 91.2 | 36.5 | 98.1 | 88.2 | 90.2 | 73.5 | 1.33 | 65 | 82.6
100 nM | 97.1 | 32.9 | > 100 | 95.8 | > 100 | 82.7 | 18 | 78.5 | 90.3
1000 nM | 73 | 3.45 | 87.9 | 73.5 | 48.8 | 17.1 | 0.265 | 44.2 | 85.4
10000 nM | 73.6 | 11.7 | 99.3 | 68.8 | 29.9 | 32.4 | < 0 | 54.7 | 97

CN1CCN(CCCN2c3ccccc3Sc3ccc(C(F)(F)F)cc32)CC1 [Trifluoperazine]
cell viability [%]
Conditions | [1] | [2] | [3] | [4] | [5] | [6] | [7] | [8] | [9]
1 nM | 97.8 | 79.5 | > 100 | 98.8 | 99.7 | 87.1 | 99.9 | 55.5 | 84.5
10 nM | 93.7 | 52.7 | 100 | 94.2 | 80.7 | 68.6 | 49.2 | 91.7 | 98.7
100 nM | 94.1 | 65.3 | 99.9 | 97.8 | 65.1 | 42.7 | 88 | 70.3 | 97.6
1000 nM | 56 | 0.773 | 77.4 | 63.5 | 11.8 | < 0 | 0.912 | 13.3 | 75.1
10000 nM | 19.4 | 1.6 | 12 | 23.8 | 0.738 | < 0 | 3.33 | 9.9 | 15.8

O=C(/C=C/c1ccc(O)c(O)c1)OCCc1ccccc1 [Caffeic acid phenethyl ester]
cell viability [%]
Conditions | [1] | [2] | [3] | [4] | [5] | [6] | [7] | [8] | [9]
1 nM | 98.5 | 68.9 | 96.1 | 98 | 92 | 74.4 | 65.2 | 88.2 | 89.5
10 nM | 93 | 84.8 | 97.8 | 93.6 | 83.1 | 79.4 | 69.6 | 63.9 | 87.7
100 nM | 98.4 | 8.63 | > 100 | 96.9 | 39.1 | 78.2 | 55.9 | 33 | 86.2
1000 nM | 63.3 | 11.1 | 73.5 | 65.7 | 41.7 | 16.3 | 4.78 | 31 | 16.7
10000 nM | 44 | 11.8 | 38 | 35.2 | 3.62 | < 0 | 21.6 | 83.7 | 2.41

CC(C)(C)c1ccc(S(=O)(=O)NCc2ccc(C(=O)Nc3cccnc3)cc2)cc1 [STF-31]
cell viability [%]
Conditions | [1] | [2] | [3] | [4] | [5] | [6] | [7] | [8] | [9]
1 nM | 95.2 | 72.4 | 95.5 | 98 | 90.6 | 80.1 | 78.8 | 56.6 | 84.9
10 nM | 82 | 28.7 | 92.3 | 85.7 | 45.5 | 62.7 | 6.66 | 35 | 83.8
100 nM | > 100 | 7.17 | 99.3 | 71.1 | 6.65 | 7.78 | 0.912 | 64.9 | 18
1000 nM | 31.6 | < 0 | 2.57 | 21.7 | 2.19 | < 0 | 0.265 | < 0 | 1.84
10000 nM | 16.5 | 0.773 | 1.37 | 28.8 | 1.78 | < 0 | 2.27 | 4.94 | 1.54

c1cc(-c2cnn3cc(-c4ccc(OCCN5CCCCC5)cc4)cnc23)ccn1 [Dorsomorphin]
cell viability [%]
Conditions | [1] | [2] | [3] | [4] | [5] | [6] | [7] | [8] | [9]
1 nM | 76.7 | 41.6 | 95.2 | 84.6 | 64.7 | 25.4 | 3.45 | 17.6 | 86.7
10 nM | 93.2 | > 100 | > 100 | > 100 | 99.1 | 95.4 | 81.3 | 76.4 | 91.5
100 nM | 78.1 | 11.5 | 90.4 | 73.2 | 67.9 | 65 | 5.46 | 61.4 | 90.1
1000 nM | 65.8 | 41.3 | 79.8 | 83.4 | 86.3 | 89.5 | 1.33 | 27.6 | 56.8
10000 nM | 27.8 | 18.7 | 43.8 | 72.5 | 34.1 | 30.9 | 10.2 | 38.4 | 35.9
